Data on 53 molecules can be found in BindingDB's records for doi:10.1111/cbdd.12463 (University of California San Diego, 2015).

In test [1] the target is T1, Decaprenyl diphosphate synthase (Mycobacterium tuberculosis (strain CDC 1551 / Oshkosh), UniProt P9WFF6).
T1 sequence (P9WFF6 whole entry): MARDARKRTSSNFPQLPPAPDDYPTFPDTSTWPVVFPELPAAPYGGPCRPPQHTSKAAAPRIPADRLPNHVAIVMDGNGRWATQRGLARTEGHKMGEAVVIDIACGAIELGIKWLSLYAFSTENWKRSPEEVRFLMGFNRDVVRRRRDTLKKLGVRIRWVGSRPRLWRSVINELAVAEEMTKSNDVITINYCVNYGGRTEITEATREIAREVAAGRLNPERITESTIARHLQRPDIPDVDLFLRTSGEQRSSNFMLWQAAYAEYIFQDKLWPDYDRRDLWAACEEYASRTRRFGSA
The experiment in a line: DPPS Inhibition (GPP based) Assay. The conditions noted are these: pH 7.5. The source says:
We screened an in-house library of 43 compounds using GPP as substrate.

The target in test [2] is T1, Decaprenyl diphosphate synthase. Nature of the test: DPPS Inhibition (trans FPP based) Assay. The conditions noted are these: pH 7.5. An excerpt:
We screened an in-house library of 53 compounds using trans-FPP as substrate.

Each structure is given as a SMILES string.

As to `CCCCCCCCCCCCOc1cccc(O)c1C(=O)O` [BPH-1065], the IC50 (in general, the concentration needed to halve the response being measured) in test [1] is 4.5 µM.
In test [2], `C=CCN(C)CCCCCCCCCCCCCCCC(=O)OC` [BPH-922] showed a 50% inhibitory concentration (IC50) of 620 µM.
Molecule `C=CC/C=C\C/C=C\CCCCCCCc1cccc(O)c1C(=O)O` [6-[8(Z),11(Z),14-pentadecatrienyl]salicylic acid] yielded an IC50 in test [2] of 280 µM. This IC50 is about 2.2-fold lower than that of the molecule before.
Still for that read-out and setting: in the case of `CCCCCCCCCCCCOc1ccc[n+](CC(P(=O)(O)O)P(=O)(O)O)c1` [BPH-716] it was 77 µM; in that of `O=P(O)(O)C(O)(Cc1ccc(-c2cccc(NS(=O)(=O)c3ccc(-c4ccccc4)cc3)c2)cc1)P(=O)(O)O` [BPH-781], 66 µM.
On to `CCCCCCOc1ccc(C(=O)/C=C(\O)C(=O)O)cc1` [BPH-1378], for which, in test [1], 10 µM corresponded to half-maximal inhibition (IC50). In other words, the double-digit micromolar range.
Consider `O=P(O)(O)C(O)(Cc1ccc(-c2ccc(Cl)cc2)cc1)P(=O)(O)O` [[2-(4'-Chloro-biphenyl-4-yl)-1-hydroxy-1-phosphono-ethyl]-phosphonic acid], for which half-maximal inhibition in test [2] (IC50) was put at 1.5 µM.
`NC(=O)c1cc(NC(=O)c2ccc(C(=O)Nc3cc(C(N)=O)cc(C4=NCCN4)c3)cc2)cc(C2=NCCN2)c1` [100873, 18]: the IC50 in test [1] is 8.4 µM.
Same read-out and setting: the same measure for `CCCCCCCCCCCCCCOc1cc([N+](=O)[O-])ccc1C(=O)O` [BPH-965]: 1 µM.
Same read-out and setting: in the case of `CCCCCCCCOc1cccc(C(=O)Nc2cccc(P(=O)(O)O)c2)c1` [BPH-1432] it was 0.21 µM.
In test [2], `O=C(c1ccccc1)c1ccc(OCCCCCC[n+]2ccccc2)cc1` [BPH-921] registered an IC50 of 880 µM.
`O=P(O)(O)C(CCCc1ccc(-c2ccccc2)cc1)P(=O)(O)O` [(4-Biphenyl-4-yl-1-phosphono-butyl)-phosphonic acid] gave a 50% inhibitory concentration (IC50) in test [2] of 1.6 µM.
On the same count and under the same terms, in the case of `CCCCCCCCCCCCSc1ccccc1C(=O)O` [BPH-940] it was 127 µM.
For `CCCCCCCCOc1cccc(P(=O)(CC(=O)C(=O)O)OCC)c1` (stereo not drawn) [BPH-1389], in test [1], the IC50 came out at 2.6 µM.
Still for that read-out and setting: the same measure for `CC(C)=CCC/C(C)=C/COc1ccc(C(=O)/C=C(\O)C(=O)O)cc1` [BPH-1379]: 4.1 µM; for `CCCCCCCCOc1cccc(C(=O)Nc2cc(F)c(F)cc2C(=O)O)c1` [BPH-1455]: 0.279 µM.
With `O=P(O)(O)C(Nc1cccc(-c2ccccc2)c1)P(=O)(O)O` [[(Biphenyl-3-ylamino)-phosphono-methyl]-phosphonic acid], the half-inhibitory concentration (IC50) in test [2] is 6.3 µM.
Still for that read-out and setting: in the case of `O=P(O)(O)[C@@H](CCCc1cccc(Oc2ccccc2)c1)S(=O)(=O)O` [BPH-652] it was 113 µM.
With `CCCCCCCCOc1cccc(C(=O)Nc2ccc(Cl)cc2C(=O)O)c1` [BPH-1466], in test [1], half-maximal inhibition (IC50) was put at 0.156 µM.
Take `O=P(O)(O)C(O)(CCc1cccc(-c2ccccc2-c2ccccc2)c1)P(=O)(O)O` [BPH-621]: inhibition in test [2] was half-maximal at 30 µM (IC50).
The same measure, in the same setting: the same measure for `O=P(O)(O)C(O)(Cc1cccc(-c2cc(F)cc(F)c2)c1)P(=O)(O)O` [BPH-309]: 1.7 µM.
As to `CCCCCCC1=C(C[N+](C)(C)C)C(=O)c2ccccc2C1=O` [BPH-1474], the concentration for half-maximal inhibition (IC50) in test [1] stood at 7 µM.
The same measure, in the same setting: the same measure for `CCCCCCCCCCOc1cc(C(=O)Nc2ccc(S(N)(=O)=O)cc2C(=O)O)cc(C(=O)OC)c1` [BPH-1257]: 1.1 µM.
Still for that read-out and setting: in the case of `CCCCCCCCCCOc1cccc(COc2ccc(S(=O)(=O)N3CCN(C(C)=O)CC3)cc2C(=O)O)c1` [BPH-1165] it was 3 µM.
As to `O=P(O)(O)C(Nc1ccc(-c2ccccc2)cc1)P(=O)(O)O` [(biphenyl-4-ylamino)methylenediphosphonic acid], the half-maximal inhibitory concentration (IC50) in test [2] was found to be 4.6 µM.
Still for that read-out and setting: the same measure for `CCCCCCCCCCCCNCC(P(=O)(O)O)P(=O)(O)O` [1-[(n-Dodec-1-ylamino)ethyl]1,1-bisphosphonic acid]: 370 µM; for `O=P(O)([CH2][Na])C(O)(Cc1ccc(-c2ccccc2)cc1)P(=O)(O)[CH2][Na]` (stereo not drawn) [BPH-310]: 8.8 µM.
`O=P(O)(O)C(O)(Cc1cccc(-c2ccc(F)cc2F)c1)P(=O)(O)O` [[2-(2',4'-Difluoro-biphenyl-3-yl)-1-hydroxy-1-phosphono-ethyl]-phosphonic acid] returned a half-inhibitory concentration (IC50) in test [2] of 4.3 µM.
On the same count and under the same terms, the same measure for `O=P(O)(O)C(O)(CCc1ccc(-c2ccccc2)cc1)P(=O)(O)O` [BPH-665]: 13 µM.
Regarding `CCCCCCCCOc1cccc(C(=O)Nc2cc(S(C)(=O)=O)ccc2C(=O)O)c1` [BPH-1467], in test [1], the IC50 stood at 0.138 µM.
Molecule `CCCCCCCCc1cc[n+](CC(P(=O)(O)O)P(=O)(O)O)cc1` [BPH-717] showed a half-maximal inhibitory concentration (IC50) in test [2] of 113 µM.
Same read-out and setting: the same measure for `O=P(O)(O)C(O)(CCc1cccc(-c2cccc3c2oc2ccccc23)c1)P(=O)(O)O` [BPH-646]: 363 µM.
As for `CCCCCCCCCCOc1cccc(C(=O)Nc2ccc(S(N)(=O)=O)cc2C(=O)O)c1` [BPH-1256], half-maximal inhibition in test [1] (IC50) required 0.041 µM.
With `O=P(O)(O)C(O)(Cc1cccc(-c2cccc(-c3ccccc3)c2)c1)P(=O)(O)O` [{1-hydroxy-2-[3-(3-phenylphenyl)phenyl]-1-phosphonoethyl}phosphonic acid], half-maximal inhibition in test [2] (IC50) required 18 µM.
Same read-out and setting: the same measure for `O=P(O)(O)C(CNc1cccc(-c2ccccc2)c1)P(=O)(O)O` [2-(biphenyl-3-ylamino)ethane-1,1-diyldiphosphonic acid]: 17 µM.
With `NCCc1cc(Br)cc(C#Cc2ccc(C#Cc3cc(Br)cc(CCN)c3)cc2)c1` [BPH-1419], the midpoint of inhibition in test [1], the IC50, lay at 0.57 µM. That is a sub-micromolar value.
`O=P(O)(O)C(O)(Cc1ccc(-c2ccccc2-c2ccccc2)cc1)P(=O)(O)O` [BPH-624] returned an IC50 in test [2] of 5.4 µM. In other words, the single-digit micromolar range.
Same read-out and setting: in the case of `O=P(O)(O)C(O)(Cc1ccc(-c2cccc(NS(=O)(=O)c3ccc4ccccc4c3)c2)cc1)P(=O)(O)O` [BPH-780] it was 3.8 µM.
Turning to `CCCCCCCCOc1ccc(C(=O)/C=C(\O)C(=O)O)cc1` [BPH-1330], the IC50 in test [1] stood at 20 µM. This counts as double-digit micromolar.
Still for that read-out and setting: in the case of `CCCCCCCCCCCCCCSc1ccccc1C(=O)O` [BPH-948] it was 0.036 µM.
The molecule `O=P(O)(O)C(C[n+]1ccc(-c2cccc3c2oc2ccccc23)cc1)P(=O)(O)O` [BPH-642] had an IC50 in test [2] of 114 µM.
`CCCCCCCOc1cccc(C(=O)Nc2ccccc2C(=O)O)c1` [BPH-1167] gave an IC50 in test [1] of 0.133 µM. In other words, the sub-micromolar range.
`O=P(O)(O)C(O)(CCc1cccc(-c2cccc(-c3ccccc3)c2)c1)P(=O)(O)O` [BPH-622] registered an IC50 in test [2] of 55 µM.
Still for that read-out and setting: in the case of `O=P(O)(O)C(O)(Cc1cccc(-c2ccc(-c3ccccc3)cc2)c1)P(=O)(O)O` [{1-hydroxy-2-[3-(4-phenylphenyl)phenyl]-1-phosphonoethyl}phosphonic acid] it was 31 µM.
Take `O=C(Nc1ccc(CCC2=NCCN2)cc1)c1ccc(C(=O)Nc2ccc(CCC3=NCCN3)cc2)cc1` [BPH-1413]: in test [1], the 50% inhibitory concentration (IC50) was 5.8 µM.
Same read-out and setting: in the case of `CCn1c2ccccc2c2cc(NC(=O)/C=C(\O)C(=O)O)ccc21` [BPH-1149] it was 2 µM; in that of `CCCCCCCCOc1cccc(C(=O)Nc2ccccc2P(=O)(O)O)c1` [BPH-1440], 0.76 µM.
On the same count and under the same terms, the same measure for `CCCCCCCCOc1cccc(CNC(=O)/C=C(\O)C(=O)O)c1` [BPH-1305]: 6.3 µM; for `CCCCCCCCCCOc1cccc(COc2ccccc2C(=O)O)c1` [BPH-1150]: 0.7 µM.
In test [1], `NCCc1cccc(C#Cc2ccc(C#Cc3cccc(CCN)c3)cc2)c1` [BPH-1427] came in with an IC50 of 3.2 µM.
In turn, `C/C=C\C(=C/CC(=O)Nc1ccc(OC(F)(F)F)cc1C(=O)O)OCCCCCCCC` [BPH-1477] came in with an IC50 in test [1] of 0.043 µM.
Same read-out and setting: the same measure for `CCCCCCCCOc1cccc(C(=O)N(C)c2cccc(P(=O)(O)O)c2)c1` [BPH-1433]: 0.49 µM; for `O=C(/C=C/c1ccc(O)c(O)c1)OC1CC(O)(C(=O)O)CC(O)C1O` (stereo not drawn) [BPH-1068]: 2.3 µM.
